Calls of active or inactive are those of the source. The rule behind the calls is not given here.
Experiments:
[1] = target: T1, Cyclin-dependent kinase 9 (Homo sapiens, UniProt P50750); assay: Induction of HyT-mediated degradation of CDK9 in human 22Rv1 cells at 0.3 to 3 uM incubated for 24 hrs by immunoblot analysis; type: cell-based; conditions: dose 0.3-3 µM
[2] = target: T1, Cyclin-dependent kinase 9; assay: Induction of HyT-mediated degradation of CDK9 in human 22Rv1 cells incubated for 24 hrs by immunoblot analysis; type: cell-based
Cyclin-T1 [3] = target: T2, Cyclin-T1 (Homo sapiens, UniProt O60563); assay: Induction of HyT-mediated degradation of Cyclin T1 in human 22Rv1 cells incubated for 24 hrs by immunoblot analysis; type: cell-based
[4] = target: G1/S-specific cyclin-E1 (Homo sapiens) (UniProt P24864); assay: Induction of HyT-mediated degradation of cyclin E1 in human 22Rv1 cells assessed as reduction in cyclin E1 level at 6 uM incubated for 24 hrs by immunoblot analysis; type: cell-based
[5] = target: T1, Cyclin-dependent kinase 9; assay: Induction of Flag-tagged CDK9 (unknown origin) polyubiquitination expressed in HEK293T cells co-transfected with HA-tagged Cyclin T1 and Myc ubiquitin assessed as increase in K48-linkage poly-ubiqutinated CDK9 level at 1 to 2 uM incubated for 20 hrs by immunoprecipitation analysis; type: cell-based; conditions: dose 1-2 µM
CWR22R [6] = assay: Downregulation of CDK4 level in human 22Rv1 cells at 3 uM measured after 12 hrs by DIA-based proteomics analysis; type: functional, cell-based
[7] = target: T1, Cyclin-dependent kinase 9; assay: Induction of HyT-mediated degradation of CDK9 in human 22Rv1 cells at 3 uM measured for 36 hrs by DIA-based proteomics analysis; type: cell-based
Cyclin-T1 [8] = target: T2, Cyclin-T1; assay: Induction of HyT-mediated degradation of Cyclin T1 in human 22Rv1 cells at 3 uM measured for 36 hrs by DIA-based proteomics analysis; type: cell-based
[9] = target: T1, Cyclin-dependent kinase 9; assay: Induction of HyT-mediated degradation of CDK9 in human 22Rv1 cells at 3 uM measured after 5 to 18 hrs by immunoblot analysis; type: cell-based; conditions: time 5-18 hrs
Cyclin-T1 [10] = target: T2, Cyclin-T1; assay: Induction of HyT-mediated degradation of Cyclin T1 in human 22Rv1 cells at 3 uM measured after 5 to 18 hrs by immunoblot analysis; type: cell-based; conditions: time 5-18 hrs
[11] = target: T1, Cyclin-dependent kinase 9; assay: Induction of HyT-mediated degradation of CDK9 in human 22Rv1 cells assessed as reduction in CDK9 protein level at 3 uM measured after 24 to 48 hrs by immunoblot analysis; type: cell-based; conditions: time 24-48 hrs
Cyclin-T1 [12] = target: T2, Cyclin-T1; assay: Induction of HyT-mediated degradation of Cyclin T1 in human 22Rv1 cells assessed as reduction in Cyclin T1 protein level at 3 uM measured after 24 to 48 hrs by immunoblot analysis; type: cell-based; conditions: time 24-48 hrs
[13] = target: Cyclin-dependent kinase 1 (Homo sapiens) (UniProt P06493); assay: Induction of CDK1 degradation in human 22Rv1 cells assessed as downregulation of CDK1 level at 3 uM measured after 12 hrs by DIA-based proteomics analysis; type: cell-based
[14] = target: Cyclin-dependent kinase 7 (Homo sapiens) (UniProt P50613); assay: Induction of CDK7 degradation in human 22Rv1 cells assessed as downregulation of CDK7 level at 3 uM measured after 12 hrs by DIA-based proteomics analysis; type: cell-based
CWR22R [15] = assay: Downregulation of CDK6 level in human 22Rv1 cells at 3 uM measured after 12 hrs by DIA-based proteomics analysis; type: functional, cell-based
[16] = target: T3, CDK9/cyclin T1 (Homo sapiens) (UniProt O60563+P50750); assay: Induction of CDK9/Cyclin T1 degradation in human 22Rv1 cells assessed as decrease in cyclin D1 protein expression at 3 uM measured for 36 hrs by DIA-based proteomics analysis; type: cell-based
[17] = target: T3, CDK9/cyclin T1 (Homo sapiens); assay: Induction of CDK9/Cyclin T1 degradation in human 22Rv1 cells assessed as downregulation of JMJD6 protein expression at 2 uM measured after 24 hrs by immunoblot analysis; type: cell-based
[18] = target: T3, CDK9/cyclin T1 (Homo sapiens); assay: Induction of CDK9/Cyclin T1 degradation in human 22Rv1 cells assessed as downregulation of AR protein expression at 2 uM measured after 24 hrs by immunoblot analysis; type: cell-based
[19] = target: T3, CDK9/cyclin T1 (Homo sapiens); assay: Induction of CDK9/Cyclin T1 degradation in human 22Rv1 cells assessed as downregulation of AR protein expression at 2 uM measured after 48 hrs by immunoblot analysis relative to control; type: cell-based
[20] = target: T3, CDK9/cyclin T1 (Homo sapiens); assay: Induction of CDK9/Cyclin T1 degradation in human 22Rv1 cells assessed as downregulation of AR-V7 splice variant protein expression at 2 uM measured after 48 hrs by immunoblot analysis relative to control; type: cell-based
[21] = target: T3, CDK9/cyclin T1 (Homo sapiens); assay: Induction of CDK9/Cyclin T1 degradation in human 22Rv1 cells assessed as downregulation of c-Myc protein expression at 2 uM measured after 48 hrs by immunoblot analysis; type: cell-based
CWR22R [22] = assay: Antiproliferative activity against human 22Rv1 cells assessed as reduction in cell viability measured after 5 days by CellTiter-Glo assay; type: functional, cell-based; conditions: 22Rv1, 120 h
CWR22R [23] = assay: Induction of cell cycle arrest in human 22Rv1 cells assessed as accumulation of cells at sub-G1 phase at 0.3 to 1 uM incubated for 24 hrs by propidium iodide staining based flow cytometry; type: functional; conditions: dose 0.3-1 µM
CWR22R [24] = assay: Induction of apoptosis in human 22Rv1 cells at 0.3 to 1 uM incubated for 24 hrs by AnnexinV-FITC/PI staining based flow cytometry; type: functional, cell-based; conditions: dose 0.3-1 µM
[25] = target: T3, CDK9/cyclin T1 (Homo sapiens); assay: Induction of CDK9/Cyclin T1 degradation in human 22Rv1 cells assessed as inhibition of Ser2 phosphorylation of RNA Pol II CTD at 0.3 to 3 uM incubated for 24 hrs by immunoblot analysis; type: cell-based; conditions: dose 0.3-3 µM
[26] = target: T3, CDK9/cyclin T1 (Homo sapiens); assay: Induction of CDK9/Cyclin T1 degradation in human 22Rv1 cells assessed as downregulation of NAT1 gene expression at 2 uM incubated for 24 hrs by RNA-Seq based analysis; type: cell-based
[27] = target: T3, CDK9/cyclin T1 (Homo sapiens); assay: Induction of CDK9/Cyclin T1 degradation in human 22Rv1 cells assessed as downregulation of NKX3-1 gene expression at 2 uM incubated for 24 hrs by RNA-Seq based analysis; type: cell-based
[28] = target: T3, CDK9/cyclin T1 (Homo sapiens); assay: Induction of CDK9/Cyclin T1 degradation in human 22Rv1 cells assessed as downregulation of CDK20 gene expression at 2 uM incubated for 24 hrs by RNA-Seq based analysis; type: cell-based
[29] = target: T3, CDK9/cyclin T1 (Homo sapiens); assay: Induction of CDK9/Cyclin T1 degradation in human 22Rv1 cells assessed as downregulation of VIM gene expression at 2 uM incubated for 24 hrs by RNA-Seq based analysis; type: cell-based
[30] = target: T3, CDK9/cyclin T1 (Homo sapiens); assay: Induction of CDK9/Cyclin T1 degradation in human 22Rv1 cells assessed as downregulation of BTG1 gene expression at 2 uM incubated for 24 hrs by RNA-Seq based analysis; type: cell-based
[31] = target: T3, CDK9/cyclin T1 (Homo sapiens); assay: Induction of CDK9/Cyclin T1 degradation in human 22Rv1 cells assessed as downregulation of KLK1 gene expression at 2 uM incubated for 24 hrs by RNA-Seq based analysis; type: cell-based
[32] = target: T3, CDK9/cyclin T1 (Homo sapiens); assay: Induction of CDK9/Cyclin T1 degradation in human 22Rv1 cells assessed as downregulation of KLK15 gene expression at 2 uM incubated for 24 hrs by RNA-Seq based analysis; type: cell-based
[33] = target: T3, CDK9/cyclin T1 (Homo sapiens); assay: Induction of CDK9/Cyclin T1 degradation in human 22Rv1 cells assessed as downregulation of IKBKE gene expression at 2 uM incubated for 24 hrs by RNA-Seq based analysis; type: cell-based
[34] = target: T3, CDK9/cyclin T1 (Homo sapiens); assay: Induction of CDK9/Cyclin T1 degradation in human 22Rv1 cells assessed as downregulation of NOTCH1 gene expression at 2 uM incubated for 24 hrs by RNA-Seq based analysis; type: cell-based

T1 sequence (P50750 whole entry): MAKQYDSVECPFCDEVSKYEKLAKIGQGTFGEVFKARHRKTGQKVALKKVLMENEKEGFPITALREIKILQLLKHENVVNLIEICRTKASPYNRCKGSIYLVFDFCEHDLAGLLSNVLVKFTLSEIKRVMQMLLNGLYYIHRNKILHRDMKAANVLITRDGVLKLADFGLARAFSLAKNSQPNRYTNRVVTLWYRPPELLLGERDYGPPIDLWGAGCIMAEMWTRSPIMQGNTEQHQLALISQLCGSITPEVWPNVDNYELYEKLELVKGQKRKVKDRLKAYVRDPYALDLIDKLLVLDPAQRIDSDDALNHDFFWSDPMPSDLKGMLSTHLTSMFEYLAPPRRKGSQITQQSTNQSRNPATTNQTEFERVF
T2 sequence (O60563 whole entry): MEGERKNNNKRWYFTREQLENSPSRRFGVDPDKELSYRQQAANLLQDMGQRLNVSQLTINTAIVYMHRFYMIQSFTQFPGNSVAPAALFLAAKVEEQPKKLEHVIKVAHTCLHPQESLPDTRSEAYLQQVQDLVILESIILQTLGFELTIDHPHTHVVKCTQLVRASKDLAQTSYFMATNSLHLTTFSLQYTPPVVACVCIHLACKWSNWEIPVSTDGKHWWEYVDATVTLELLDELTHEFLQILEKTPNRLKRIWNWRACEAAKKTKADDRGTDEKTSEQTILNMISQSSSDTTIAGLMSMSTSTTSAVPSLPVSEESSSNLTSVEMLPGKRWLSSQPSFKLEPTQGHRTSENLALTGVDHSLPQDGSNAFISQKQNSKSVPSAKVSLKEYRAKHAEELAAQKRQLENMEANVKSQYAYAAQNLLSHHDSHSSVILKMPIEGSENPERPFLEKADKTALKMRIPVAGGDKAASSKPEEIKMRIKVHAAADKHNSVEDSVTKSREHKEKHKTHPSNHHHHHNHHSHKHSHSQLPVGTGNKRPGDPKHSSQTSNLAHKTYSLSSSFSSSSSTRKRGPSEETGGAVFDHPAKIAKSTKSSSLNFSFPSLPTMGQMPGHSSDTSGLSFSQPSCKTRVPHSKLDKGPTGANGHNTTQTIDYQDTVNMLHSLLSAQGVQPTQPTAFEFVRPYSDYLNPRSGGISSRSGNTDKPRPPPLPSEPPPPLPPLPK
Sequence of Cyclin-dependent kinase 1 (Homo sapiens) (P06493 whole entry, looked up): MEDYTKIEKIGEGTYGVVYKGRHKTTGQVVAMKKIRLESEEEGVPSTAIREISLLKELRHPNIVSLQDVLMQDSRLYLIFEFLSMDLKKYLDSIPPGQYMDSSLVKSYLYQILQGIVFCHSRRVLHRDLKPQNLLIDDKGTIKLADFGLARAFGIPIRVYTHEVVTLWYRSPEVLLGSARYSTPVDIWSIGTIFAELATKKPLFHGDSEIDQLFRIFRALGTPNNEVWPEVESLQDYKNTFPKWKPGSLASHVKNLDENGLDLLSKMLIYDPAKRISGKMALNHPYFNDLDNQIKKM
Sequence of G1/S-specific cyclin-E1 (Homo sapiens) (P24864 whole entry): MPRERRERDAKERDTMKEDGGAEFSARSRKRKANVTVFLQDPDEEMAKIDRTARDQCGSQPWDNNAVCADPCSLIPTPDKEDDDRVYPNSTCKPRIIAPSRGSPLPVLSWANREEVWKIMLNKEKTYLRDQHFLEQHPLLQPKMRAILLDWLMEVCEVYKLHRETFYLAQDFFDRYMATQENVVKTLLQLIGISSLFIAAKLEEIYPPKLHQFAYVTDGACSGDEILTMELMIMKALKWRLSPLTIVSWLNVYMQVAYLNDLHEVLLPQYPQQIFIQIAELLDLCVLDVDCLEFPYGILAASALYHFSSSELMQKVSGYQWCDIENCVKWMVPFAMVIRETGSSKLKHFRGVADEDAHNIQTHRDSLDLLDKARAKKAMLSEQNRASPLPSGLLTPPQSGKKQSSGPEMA
Sequence of Cyclin-dependent kinase 7 (Homo sapiens) (P50613 whole entry): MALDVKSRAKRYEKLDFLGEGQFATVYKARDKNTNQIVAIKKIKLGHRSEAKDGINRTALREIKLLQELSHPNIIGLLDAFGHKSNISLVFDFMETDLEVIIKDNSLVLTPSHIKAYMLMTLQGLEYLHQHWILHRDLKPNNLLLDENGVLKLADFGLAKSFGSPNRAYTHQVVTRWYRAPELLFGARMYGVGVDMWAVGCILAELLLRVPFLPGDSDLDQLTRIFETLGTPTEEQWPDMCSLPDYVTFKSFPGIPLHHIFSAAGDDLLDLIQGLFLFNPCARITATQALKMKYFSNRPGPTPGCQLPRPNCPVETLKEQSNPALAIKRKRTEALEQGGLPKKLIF

With `CC(C)[C@@H]1CC[C@@H](C)C[C@H]1OCC(=O)NCCS(=O)(=O)N1CCC(C(=O)Nc2ncc(SCc3ncc(C(C)(C)C)o3)s2)CC1` the Activity [1] was “Active”, the DC50 [2] was 662 nM and the DC50 (Cyclin-T1 [3]) was 589 nM. The Activity [4] was “Active”, the Activity [5] was “Active” and the inhibition (CWR22R [6]) was “Active”. For the same compound, the Activity [7] was “Active”, the Activity (Cyclin-T1 [8]) was “Active” and the Activity [9] was “Active”. For the same compound, the Activity (Cyclin-T1 [10]) was “Active”, the Activity [11] was “Active” and the Activity (Cyclin-T1 [12]) was “Active”. The Activity [13] was “Active”, the Activity [14] was “Active” and the inhibition (CWR22R [15]) was “Active”. The Activity [16] was “Active”, the Activity [17] was “Active” and the Activity [18] was “Active”. The Activity [19] was 100%, the Activity [20] was 100% and the Activity [21] was “Active”. For the same compound, the IC50 (CWR22R [22]) was 95 nM, the Activity (CWR22R [23]) was “Active” and the Activity (CWR22R [24]) was “Active”. The Activity [25] was “Active”, the Activity [26] was “Active” and the Activity [27] was “Active”. For the same compound, the Activity [28] was “Active”, the Activity [29] was “Active” and the Activity [30] was “Active”. For the same compound, the Activity [31] was “Active”, the Activity [32] was “Active” and the Activity [33] was “Active”. The Activity [34] was “Active”.

Reference: ChEMBL document CHEMBL5113511, “Discovery of Small-Molecule Degraders of the CDK9-Cyclin T1 Complex for Targeting Transcriptional Addiction in Prostate Cancer” (J Med Chem, 2022)
